Among the test systems are A498; DU-145; HCT-116; HCT-15; HOP-62; HT-29; K562; MDA-MB-435; NCI-H226; OVCAR-3; OVCAR-5; OVCAR-8; PC-3; SF-295; SK-MEL-2; SK-OV-3; TK-10; UACC-62; UO-31; HOP-92.
Holding throughout (experiment): NCI-60 cell line screen, 48 h

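Test compounds were applied to cells in 96-well plates for 48 hours at 5 doses. Here, GI50 denotes the concentration required for 50% inhibition of growth.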 The source made the active and inactive calls. No stated cut-off is given here; in the data, active = GI50 up to about 1.1 µM and inactive = higher.

This is an account of results in ChEMBL document CHEMBL1201862, “PubChem BioAssay data set” (2004).

In the case of `O=C(O)C/C(=C\c1ccco1)C(=O)O`, the GI50 in the assay on A498 is > 100 µM (inactive); in the assay with DU-145, > 100 µM (inactive); in the assay on HCT-116 it was > 100 µM (inactive); in the assay on HCT-15, over 100 µM; in the assay on HOP-62, > 100 µM (inactive); with HT-29 it was > 100 µM (inactive). The GI50 in the assay with K562, with MDA-MB-435, in the assay on NCI-H226, with OVCAR-3, with OVCAR-5 and in the assay with OVCAR-8 was > 100 µM (inactive) in each case. In addition, the GI50 in the assay with PC-3, in the assay with SF-295, in the assay with SK-MEL-2, in the assay with SK-OV-3, in the assay on TK-10 and in the assay with UACC-62 was > 100 µM (inactive) each time. The GI50 in the assay with UO-31 is > 100 µM (inactive).
Take `CC(=O)Oc1ccc2c(c1)CC[C@@H]1C2CC[C@]2(C)C(=O)NC(=O)CC12` (some centres undefined): the GI50 in the assay on A498, with DU-145, in the assay with HCT-116, in the assay with HOP-62, with HOP-92 and in the assay on HT-29 was > 100 µM (inactive) each time. Besides, the GI50 in the assay with K562, with MDA-MB-435, in the assay on NCI-H226, in the assay with OVCAR-3, in the assay on OVCAR-5 and in the assay on OVCAR-8 was > 100 µM (inactive) throughout. Further, the GI50 in the assay on PC-3, in the assay with SF-295, in the assay with SK-OV-3, in the assay on TK-10, in the assay with UACC-62 and in the assay with UO-31 was > 100 µM (inactive) each time.
On to `CCC/N=C(/NC(=O)c1ccc(Cl)cc1)SC`, for which the GI50 with A498 was 27.4 µM (inactive); with DU-145 it was > 100 µM (inactive); in the assay on HCT-116 it was > 100 µM (inactive); in the assay on HCT-15, 47.9 µM; in the assay with HOP-62, > 100 µM (inactive); in the assay with HT-29 it was 97.3 µM (inactive). The GI50 was 44.1 µM (inactive) in the assay on K562; > 100 µM (inactive) in the assay with MDA-MB-435; 43.1 µM (inactive) in the assay on NCI-H226; 0.0473 µM (active) in the assay with OVCAR-3; > 100 µM (inactive) with OVCAR-5; > 100 µM (inactive) in the assay with OVCAR-8. The GI50 in the assay with PC-3 was 80.5 µM (inactive); in the assay on SF-295, > 100 µM (inactive); with SK-MEL-2 it was > 100 µM (inactive); with SK-OV-3 it was > 100 µM (inactive); in the assay on UACC-62 it was > 100 µM (inactive); in the assay on UO-31, 15 µM (inactive).
Turning to `CNC(c1ccncc1)C(NC)c1ccncc1` (centres undefined), the GI50 is > 100 µM (inactive) with A498; > 100 µM (inactive) in the assay with DU-145; > 100 µM (inactive) in the assay with HCT-116; over 100 µM in the assay with HCT-15; > 100 µM (inactive) in the assay with HOP-62; > 100 µM (inactive) with HT-29. Further, the GI50 with K562, in the assay on MDA-MB-435, in the assay with NCI-H226, in the assay with OVCAR-3, with OVCAR-5 and with OVCAR-8 was > 100 µM (inactive) throughout. Besides, the GI50 in the assay with PC-3, in the assay with SF-295, in the assay with SK-MEL-2, in the assay on SK-OV-3, in the assay with TK-10 and in the assay with UACC-62 was > 100 µM (inactive) each time. Further, the GI50 in the assay with UO-31 was > 100 µM (inactive).
For the compound `CN1N=C(c2ccncc2)OC1c1cccc(C(F)(F)F)c1` (centres undefined), the GI50 in the assay on A498 is > 100 µM (inactive); with DU-145 it was > 100 µM (inactive); in the assay with HCT-116, 67.1 µM (inactive); with HCT-15, over 100 µM; in the assay with HOP-62, > 100 µM (inactive); in the assay on HT-29, > 100 µM (inactive). Further, the GI50 in the assay on K562 is 96.8 µM (inactive); in the assay on MDA-MB-435 it was > 100 µM (inactive); in the assay on NCI-H226 it was 58.9 µM (inactive); in the assay with OVCAR-3 it was 71.1 µM (inactive); in the assay on OVCAR-5, > 100 µM (inactive); in the assay on OVCAR-8, > 100 µM (inactive). Further, the GI50 in the assay with PC-3, with SF-295, with SK-MEL-2, with SK-OV-3, in the assay on TK-10 and in the assay with UACC-62 was > 100 µM (inactive) in each case. In addition, in the assay with UO-31, the GI50 is > 100 µM (inactive).
As to `N#CCN(CC#N)C1CC=CCC1N(CC#N)CC#N` (centres undefined), the GI50 in the assay on DU-145 was > 100 µM (inactive); in the assay with HCT-116 it was > 100 µM (inactive); with HCT-15 it was over 100 µM; in the assay on HOP-62, > 100 µM (inactive); with HOP-92 it was > 100 µM (inactive); in the assay with HT-29, > 100 µM (inactive). For the same compound, the GI50 with K562, with MDA-MB-435, in the assay with NCI-H226, with OVCAR-3, with OVCAR-5 and with OVCAR-8 was > 100 µM (inactive) in each case. The GI50 with PC-3, in the assay with SF-295, with SK-MEL-2, in the assay with SK-OV-3, in the assay on TK-10 and in the assay on UACC-62 was > 100 µM (inactive) throughout. Moreover, in the assay on UO-31, the GI50 was > 100 µM (inactive).
As to `[O-][n+]1cn[n+]([O-])c2ccccc21`, the GI50 in the assay on A498 was 61.4 µM (inactive); with DU-145, 63.1 µM (inactive); in the assay with HCT-116, 13.3 µM (inactive); in the assay on HCT-15, 16.4 µM; in the assay on HOP-62, 17.9 µM (inactive); in the assay with HT-29 it was 13.6 µM (inactive). The GI50 with K562 was 6.95 µM (inactive); in the assay on MDA-MB-435 it was 67.3 µM (inactive); in the assay with NCI-H226, > 100 µM (inactive); in the assay on OVCAR-5, > 100 µM (inactive); in the assay with OVCAR-8 it was 18.9 µM (inactive); with PC-3 it was 11.7 µM (inactive). The GI50 was 30.3 µM (inactive) in the assay with SF-295; 27.4 µM (inactive) in the assay with SK-MEL-2; 27.3 µM (inactive) in the assay with SK-OV-3; > 100 µM (inactive) with TK-10; 16.3 µM (inactive) in the assay on UACC-62; 28.3 µM (inactive) with UO-31.
As for `COC(=NCCC1=CCCCC1)OC`, the GI50 is > 100 µM (inactive) with A498; > 100 µM (inactive) with DU-145; 32.8 µM (inactive) with HCT-116; 82 µM in the assay with HCT-15; > 100 µM (inactive) in the assay with HOP-62; 31.6 µM (inactive) in the assay with HOP-92. Also, the GI50 in the assay on HT-29 is 18.2 µM (inactive); with K562 it was 36 µM (inactive); with MDA-MB-435, 71.6 µM (inactive); in the assay with OVCAR-3, > 100 µM (inactive); in the assay on OVCAR-5 it was 51.3 µM (inactive); in the assay on OVCAR-8, 75.7 µM (inactive). For the same compound, the GI50 in the assay on PC-3 was 85.7 µM (inactive); in the assay on SF-295 it was > 100 µM (inactive); in the assay on SK-MEL-2, 87.7 µM (inactive); with SK-OV-3, > 100 µM (inactive); in the assay with TK-10, > 100 µM (inactive); with UACC-62, > 100 µM (inactive). For the same compound, the GI50 in the assay on UO-31 is 53 µM (inactive).
Consider `CC(=O)O[C@@H]1[C@@H](O)C2=C3[C@]4(C)[C@@H]1C(C)(C)C(=O)C[C@@H]4[C@]3(O)[C@H](OC(C)=O)[C@@]1(C[C@@H]1C)C2=O`, for which the GI50 was 23.4 µM (inactive) in the assay with A498; 17.3 µM (inactive) with DU-145; 16.1 µM (inactive) in the assay on HCT-116; 15.3 µM in the assay with HCT-15; 15.6 µM (inactive) in the assay on HOP-92; 2.71 µM (inactive) with K562. Also, the GI50 is 16 µM (inactive) in the assay with MDA-MB-435; 18.5 µM (inactive) in the assay with OVCAR-3; 23.7 µM (inactive) in the assay on OVCAR-5; 18.5 µM (inactive) with OVCAR-8; 19.6 µM (inactive) with PC-3; 20.7 µM (inactive) with SF-295. Besides, the GI50 in the assay with SK-MEL-2 was 25.6 µM (inactive); in the assay with SK-OV-3, 24.2 µM (inactive); with TK-10, 14.2 µM (inactive); in the assay on UACC-62 it was 13.7 µM (inactive); with UO-31, 17.5 µM (inactive).
Consider `C=CCSC1=N/C(=C\c2ccc(OC)cc2)C(=O)N1CC=C`, for which the GI50 was 14.9 µM (inactive) with A498; 42.2 µM (inactive) in the assay with DU-145; 25.4 µM (inactive) in the assay on HCT-116; 20.8 µM in the assay with HCT-15; 74.6 µM (inactive) with HOP-62; 28.8 µM (inactive) in the assay with HOP-92. The GI50 in the assay with HT-29 was 20.2 µM (inactive); in the assay with K562, 23.7 µM (inactive); with MDA-MB-435, 26.4 µM (inactive); in the assay with OVCAR-3, 45.9 µM (inactive); in the assay with OVCAR-5, 57.8 µM (inactive); in the assay on OVCAR-8, 36.2 µM (inactive). Moreover, the GI50 was 20.8 µM (inactive) in the assay on PC-3; 35.3 µM (inactive) in the assay on SF-295; 29.6 µM (inactive) in the assay with SK-MEL-2; > 100 µM (inactive) in the assay with SK-OV-3; 45.2 µM (inactive) in the assay on TK-10; 30.3 µM (inactive) with UACC-62. In addition, in the assay with UO-31, the GI50 is 34.3 µM (inactive).
Turning to `O=C(O)Cn1cc([N+](=O)[O-])c(=O)c2ccccc21`, the GI50 is > 100 µM (inactive) with A498; 57 µM (inactive) in the assay with DU-145; > 100 µM (inactive) in the assay with HCT-116; over 100 µM in the assay with HCT-15; > 100 µM (inactive) with HOP-62; > 100 µM (inactive) in the assay on HT-29. For the same compound, the GI50 with K562, in the assay with MDA-MB-435, in the assay on NCI-H226, with OVCAR-3, in the assay on OVCAR-5 and in the assay with OVCAR-8 was > 100 µM (inactive) in each case. Further, the GI50 in the assay with PC-3, in the assay with SF-295, in the assay on SK-MEL-2, with SK-OV-3, with TK-10 and with UACC-62 was > 100 µM (inactive) in each case. Also, the GI50 in the assay on UO-31 was > 100 µM (inactive).
